One may read the pIC50 as −log10 of the IC50, conventionally taken in molar units. Read a low pIC50 as a large IC50.

Here are results for four compounds from patent US11129782B2, “Derivatives of PPD useful for coloring hair and skin” (National University of Singapore, priority 2017, dated 2021).

pIC50: −log10 of the molar value.

The subject of series [1] is IL-8. The series can be described thus: IL-8 ELISA on THP-1 cell supernatants. The settings on record: preliminary ELISA, CV75. The format is cell-based, human. As for the experimental part: For cytokine profiling in THP-1, supernatants from wells were collected and then used for cytokine analysis by a Chemokine immunosorbent assay Bio-legend ELISA Max kit. The levels of available IL-8 protein from THP-1 cell supernatants was estimated using this kit which are regulated upon activation of THP-1 model. Surface receptor expression of human CD-86, CD-54, MHC-I and IL-T3 were analyzed by flow cytometry using standard BD FACS analyzer with PE and FITC fluorescent labeled antibodies from Biolegend and e Bioscience.
In order to understand the effect of modified PPD hairdyes on THP-1 immune sensitization, a certain degree of Cytotoxicity at CV75% viable where 25% cell death is required before evaluation of supernatants in THP-1 models for expression of cytokine IL-8 and receptor expression of CD86, CD54, MHC-I and IL-T3 surface receptors upon treatment with standard PPD and modified hair dye compounds. Most allergens show a specific dose-dependent alteration of CD86 and/or CD54 expression or secretion of cytokine profiles. But depending on chemical, the alteration pattern may vary.
A general note: ELISA stands for enzyme-linked immunosorbent assay.

Series [2] concerns lysine peptide (Ac-RFAAKAA-COOH). The experiment in a line: Direct Peptide Reactivity Assay, lysine peptide. The settings on record: for % of Lysine depletion, Avg / % of Lysine depletion, Rep 2 / % of Lysine depletion, Rep 3 / Reactivity Class: 1:50; for % of Lysine depletion, Rep 1: peptide 0.02 mM : test chemical 1 mM (1:50); for Reactivity Class: lysine. As for the experimental part: (§1) The mass spectrometric analysis was performed by use of a AB SCIEX QTRAP 5500 tandem mass spectrometry (MS/MS) system (AB SCIEX, Framingham, Mass., USA) operating in triple quadrupole positive mode (ESI+) equipped with an AB Sciex Turbo Ion Spray interface. Acquisition and analysis of data were performed with Analyst software ver. 1.6.2 (Applied Biosystems).

The test system of series [3] is HaCaT cells. The experiment in a line: In vitro cell cytotoxicity (MTT) assay on HaCaT cells. The format is cell-based, human. The settings on record: 72 h incubation, MTT. An excerpt:
HaCaT (human, adult, low calcium, high temperature, human adult skin keratinocytes) cells were obtained from the IMB (Institute of Medical Biology) Skin Cell Bank. Fetal bovine serum (FBS), Dulbecco's minimum essential medium (DMEM) and trypsin EDTA solution were purchased from GE healthcare life sciences, Utah. Penicillin/streptomycin, dimethyl sulfoxide (DMSO), and phosphate buffered saline (PBS) were from Fisher Scientific (Singapore). Para-phenylenediamine (PPD) was purchased from Sigma Aldrich (Singapore). PPD analogues such as Dimer, trimer, ethyl hexyl para-phenylenediamine (EHPPD), hexyl para-phenylenediamine (HPPD), Bandrowski base (BB) were synthesized in house.
Cell viability was essentially determined using the MTT assay as described in the literature. The HaCaT cells were grown in DMEM with 10% FBS and 1% penicillin/streptomycin. The cells in T-75 cm^2 culture flasks were incubated with 5% CO2 at 37° C. in a humidified incubator. The HaCaT cells were grown to expected confluency and then they were harvested by trypsinizing the cell with 0.25% trypsin/EDTA and incubated at 37° C. for 5 min to obtain the complete cell detachment. After the incubation, cell pellets were resuspended, and washed twice with 1×PBS. The cell suspension in 1×PBS was counted and adjusted to 1×10^5/mL. A HaCaT keratinocyte suspension (100 μL in 1×PBS) with a cell concentration of 1×10^5 cells/mL) and a test solution (100 μL in milli-Q water) were combined in each well of two 96-well plates. Test solutions with a desired concentration were prepared by serial dilutions of the stock solutions with 1×PBS.
For the cytotoxicity experiment, cells were seeded at a density of 5×10^3 in 200 ul of medium into each well of 96-well plates. Cells were seeded as three sets of four replicates for each concentration. After 24 h of incubation, the cells were washed with PBS and cultured for 72 h with 200 ul of 10% FBS containing DMEM medium, together with the different concentrations of the test compounds ranging from 500 μM to 1.9 μM for PPD and analogues 1-5 and standard in a serial dilution. Then the medium was removed and 100 μl of MTT [3-(4,5-dimethylthiazol-2yl)-2,5-diphenyl-2H-tetrazolium bromide](1 mg/ml) (Alfa Aesar, Singapore) in PBS was added. At the end of 4 h incubation, the plates were removed from the incubator and plates were shaken for 5 min. The absorbance at 570 nm was determined using Bio-Tek plate reader. The cell viability rates were calculated from absorbance readings and represented as percentages of control value (untreated cells).

The subject of series [4] is cysteine and lysine peptides. The experiment in a line: Direct Peptide Reactivity Assay, mean of cysteine and lysine depletion (FIG. 12). The settings on record: cysteine 1:10 / lysine 1:50 model.
Method: Direct reactivity of test chemical to lysine-based synthetic peptide was determined in reactions containing 100 mM ammonium acetate buffer (pH 10.2). The final concentration of lysine peptide was 20 μM in a final reaction volume of 0.3 ml. Direct reactivity of test chemicals to cysteine-based synthetic peptide was determined in 100 mM Sodium Phosphate buffer of pH 7.5.
For the DPRA, incubation mixtures were prepared using each peptide to test compound ratios of both 1:10 for cysteine peptide and 1:50 for lysine peptide, according to Table 19. […] Sample reactions were initiated by adding 3 μl of a test chemical stock solution for cysteine and 15 μl stock solution for lysine peptide. These mixtures were then placed in a temperature-controlled shaking incubator at 25° C.
At each time point (20 mins/24 hours), the incubation mixtures were quenched with 75 μL of 95% ACN/H2O, and mildly vortexed (600 rpm, 3 seconds). For Lysine DPRA experiment, 10 μl of aliquot was diluted with 2% ACN/H2O, vortexed and stored at −80° C. until analysis by LC-MS/MS. For cysteine DPRA, an additional step was performed. 10 μl of cysteine reaction mixture, at time points 20 min and 24 h were diluted in 180 μl of 2% ACN/H2O. To which, a 10 μl aliquot of a 16 mM dithiothreitol solution (prepared in water) was then added, and samples were heated in a 45° C. oven for 30 min, then allowed to cool to room temperature prior to analysis. The peptide depletion (PD) percentage was obtained using this equation.
The nature of series [5]: Skin permeation in vertical Franz diffusion cells. The settings on record: 8 h; for % Parent compound Penetrated (mean) / % converted to metabolite (mean) / recovery at 8 h, 1 % w/v: 1% W/V applied; for recovery at 8 h, 1 % w/v: pig, read-out: % Parent compound Recovery (mean); for Penetration profile PPD vs derivatives (times less than PPD): ratio of PPD penetration to that of the compound. The series is classed as in vitro ADME, porcine. As for the experimental part: Porcine ears were generously provided by the NUS Department of Surgery. The ears were frozen at −80° C. until use (up to 3 months) and thawed at room temperature on the day preceding the experiment. Prior to the experiment, the skin was separated from the cartilage and dermatomed to a thickness of ˜1.0 mm using an Acculan™ 3Ti dermatome (Aesculap, Inc., B. Braun, USA).
The PPD and derivatives were dissolved in deionized water at 1% w/v. The PPD and PPD derivatives 1-5 solutions were purged with argon gas to minimize oxidation of the donor solution.
Skin penetration studies were carried out using vertical Franz diffusion cells (PermeGear, USA) immersed in a 37° C. water bath. The donor and receptor volumes were 900 µL and 5 mL, respectively; the mean surface area of penetration was 0.64 cm^2. Upon insertion of the skin pieces into the Franz cells, the skin was equilibrated for 45 min with PBS in the receptor compartment. After equilibration, the skin's trans-epidermal water loss (TEWL) was measured using an Aquaflux AF300 (Biox, UK) to assess the integrity of the skin's stratum corneum barrier. The donor solution, consisting of PPD or derivative 1-5 (n=3 Franz cells each), was then added to the donor compartment and the penetration experiments were conducted for 8 h. The receptor solutions were continuously stirred with magnetic stirrers. At fixed time points, aliquots of 200 μL were taken from the receptor solution of each cell and the receptor solution topped up with 200 μL of fresh PBS. At the end of the experiment, the donor and receptor solutions were removed and the cells dismantled. For the purpose of mass balance on the PPD, PPD derivatives 1-5 the skin pieces and swabs of their outer surfaces were collected and stored in acetonitrile for PPD or derivative 1-5 extraction. The donor solution as well as PBS used to thoroughly wash each part of the Franz cells were also collected.
PPD, PPD derivatives 1-5 and metabolite concentrations in all permeation and mass balance samples were measured by LCMS. PPD steady state fluxes and permeability coefficients were calculated by fitting the solution to Fick's second law of diffusion at the steady state to the linear part of each experimental cumulative amount curve.
The validated method LCMS was applied to quantify PPD, PPD derivative 1-5 and metabolites from skin permeation study samples. FIGS. 3 and 4 show LCMS spectra for the identification of PPD and PPD derivatives 1 and 2 and metabolites from skin permeation study experiment.

For series [6], the system named is cysteine peptide (Ac-RFAACAA-COOH). The series can be described thus: Direct Peptide Reactivity Assay, cysteine peptide. The settings on record: for % of Cysteine depletion, Avg / % of Cysteine depletion, Rep 2 / % of Cysteine depletion, Rep 3 / Reactivity Class: 1:10; for % of Cysteine depletion, Rep 1: peptide 0.02 mM : test chemical 0.2 mM (1:10); for Reactivity Class: cysteine. As to the method:
For cysteine DPRA, an additional step was performed.
as §1

As for `O=[N+]([O-])c1ccc(Cl)c([N+](=O)[O-])c1` [DNCB, reference compound], in series [1], the IL-8 expression entry was “increased expression”.

In the case of `CCCCC(CC)COc1cc(N)ccc1N` (stereo not shown) [PPD derivative 3, 2-((2-ethylhexyl)oxy)benzene-1,4-diamine], in series [2] (20 min), the “% of Lysine depletion, Avg” value amounted to 6.2%; the “% of Lysine depletion, Rep 2” value came out at 5.63%; the “% of Lysine depletion, Rep 3” value is on record as 7.89%; the “% of Lysine depletion, Rep 1” value amounted to 5.07%. Also, the “Reactivity Class” value in series [2] (20 min) was “No or Minimal”. For the same compound, in series [2] (24 h), the “% of Lysine depletion, Avg” value is reported as 15.48%; the “% of Lysine depletion, Rep 2” value was found to be 19.7%; the “% of Lysine depletion, Rep 3” value is given as 13.8%; the “% of Lysine depletion, Rep 1” value worked out at 12.8%. Further, in series [2] (24 h), the “Reactivity Class” value is recorded as “Low”. The compound also showed a pIC50 in series [3] (Homo sapiens, HaCaT, 72 h) of 4.51. The “Sensitizing potential predicted from mean peptide depletion” value (“Sensitizing potential predicted” below) in series [4] is “moderate sensitizer”. Besides, in series [5], the “% Parent compound Penetrated (mean)” value turned out to be 0.00045%; the “% converted to metabolite (mean)” value came out at 0.0123%; the recovery at 8 h, 1 % w/v was 94.5%. For the same compound, in series [5] (listed as PPD 3), the “Penetration profile PPD vs derivatives (times less than PPD)” value turned out to be 360. For the same compound, in series [6] (20 min), the “% of Cysteine depletion, Avg” value stood at 31.9%; the “% of Cysteine depletion, Rep 2” value amounted to 32%; the “% of Cysteine depletion, Rep 3” value was 31.4%; the “% of Cysteine depletion, Rep 1” value stood at 32.4%. Further, in series [6] (24 h), the “% of Cysteine depletion, Avg” value was 32.7%; the “% of Cysteine depletion, Rep 2” value came to 31.7%; the “% of Cysteine depletion, Rep 3” value came to 31.8%; the “% of Cysteine depletion, Rep 1” value was 34.8%. In addition, the “Reactivity Class” value in series [6] (24 h) is reported as “Moderate”. The “Reactivity Class” value in series [6] (20 min, listed as Derivative 3) is “Moderate”. Further, the “Reactivity Class” value in series [6] (20 min, listed as derivative 3) was “moderate”.

Consider `CCCCCCOc1cc(N)ccc1N` [PPD derivative 4, 2-hexyloxy-1,4-diaminobenzene], for which, in series [2] (20 min), the “% of Lysine depletion, Avg” value turned out to be 1.1%; the “% of Lysine depletion, Rep 2” value worked out at 0.845%; the “% of Lysine depletion, Rep 3” value worked out at 1.41%; the “% of Lysine depletion, Rep 1” value is reported as 1.13%. Moreover, in series [2] (20 min), the “Reactivity Class” value was “No or Minimal”. Also, in series [2] (24 h), the “% of Lysine depletion, Avg” value amounted to 13.4%; the “% of Lysine depletion, Rep 2” value is given as 15%; the “% of Lysine depletion, Rep 3” value is 13.9%; the “% of Lysine depletion, Rep 1” value was 11.3%. Moreover, the “Reactivity Class” value in series [2] (24 h) is on record as “Low”. Besides, the negative logarithm of the IC50 (pIC50) in series [3] was 4.46. Moreover, the pIC50 in series [3] (Homo sapiens, HaCaT, 72 h) was 4.46. For the same compound, the “Sensitizing potential predicted” value in series [4] was “moderate sensitizer”. In series [5], the “% Parent compound Penetrated (mean)” value amounted to 0.000322%; the “% converted to metabolite (mean)” value came out at 0.0121%; the recovery at 8 h, 1 % w/v worked out at 94.3%. Also, the “Penetration profile PPD vs derivatives (times less than PPD)” value in series [5] (listed as PPD 4) came to 503.1. In addition, in series [6] (20 min), the “% of Cysteine depletion, Avg” value was determined as 32.8%; the “% of Cysteine depletion, Rep 2” value is 31.8%; the “% of Cysteine depletion, Rep 3” value stood at 33.8%; the “% of Cysteine depletion, Rep 1” value turned out to be 30.8%. In series [6] (24 h), the “% of Cysteine depletion, Avg” value was 40.8%; the “% of Cysteine depletion, Rep 2” value worked out at 41%; the “% of Cysteine depletion, Rep 3” value is reported as 41.5%; the “% of Cysteine depletion, Rep 1” value was 40%. The “Reactivity Class” value in series [6] (24 h) was “Moderate”. The “Reactivity Class” value in series [6] (20 min, listed as Derivative 4) is “Moderate”. The “Reactivity Class” value in series [6] (20 min, listed as derivative 4) is “moderate”.

In series [3], `CCCCCCNc1ccc(N)cc1OCCCCCC` [PPD derivative 16, (N^1-hexyl)(2-hexyloxy)-1,4-diaminobenzene] gave a pIC50 of 3.86. The “Sensitizing potential predicted” value in series [4] is “moderate sensitizer”.
